Measured values reported in a melting point compilation (Tetko et al.).
Residues, ends and D or L forms follow the SMILES beside them. *: point of attachment. Trt = c1ccc(C(c2ccccc2)(c2ccccc2)*)cc1; Cyclohexanecarbonyl = O=C(C1CCCCC1)*; Cbz = O=C(OCc1ccccc1)*; Boc = CC(C)(C)OC(=O)*; Bn = c1ccc(C*)cc1; NHNH2 = NN*

Structure (SMILES) | melting point [°C]
O=[N+]([O-])c1cc(Sc2ccc(-c3c(S(=O)c4ccc(Cl)c([N+](=O)[O-])c4-c4ccc(Sc5ccc(Cl)c([N+](=O)[O-])c5)cc4)ccc(Cl)c3[N+](=O)[O-])cc2)ccc1Cl | 144 to 146
[C-]#[N+]CS(=O)c1ccccn1 (centres undefined) | 91 to 93
CCCCCCCCCCCCCCCCCCSc1nc(SCCCCCCCCCCCCCCCCCC)nc(-c2cc(C(C)(C)C)c(O)c(C(C)(C)C)c2)n1 | 87 to 89
CC(C)CCCC(C)C1CCC2C3CC=C4CC(N(CCCNC(=O)CCCCCNc5ccc([N+](=O)[O-])cc5[N+](=O)[O-])S(=O)(=O)c5ccccc5[N+](=O)[O-])CCC4(C)C3CCC12C (centres undefined) | 80 to 82
O=C(c1ccccc1)c1ccc(C(Cl)(Cl)Cl)cc1 | 109 to 111
CCCCCCCCCCOc1cc2c(O)c(C(=O)OCC)cnc2cc1OCC | 86.5
O=P1(Oc2c(Br)c(Br)c(Br)c(Br)c2Br)OCC2(CO1)COP(=O)(Oc1c(Br)c(Br)c(Br)c(Br)c1Br)OC2 (centres undefined) | 324 to 326
CCCCCCCCCCCCC=CCCC(Cl)CC1CC(=O)N(N(c2ccccc2)c2[nH]n(-c3c(Cl)cc(Cl)cc3Cl)c(=O)c2OC(=O)c2cc([N+](=O)[O-])ccc2N)C1=O (centres undefined) | 118 to 121
CN=S(=O)(Cc1ccc(C(F)(F)F)nc1)c1nc(-c2ccc(OC)cc2)cs1 (centres undefined) | 158 to 161
Cc1c(C2=CC(c3c(C)n(Cc4ccc(Cl)cc4)c4ccc([N+](=O)[O-])cc34)(c3c(C)n(Cc4ccc(Cl)cc4)c4ccc([N+](=O)[O-])cc34)OC2=O)c2cc([N+](=O)[O-])ccc2n1Cc1ccc(Cl)cc1 | 227 to 228
Cc1c(Nc2c(C#N)cnc3sc(C4=CCN(C)CC4)cc23)ccc2[nH]ccc12 | 230
CCCCCCCCCCCCCCCc1cccc(Oc2ccccc2SSc2ccccc2Oc2cccc(CCCCCCCCCCCCCCC)c2)c1 | 89 to 90
CCCCCCCCCCCCCCCC(=O)OC(CCCCCCCCCCCCCC)C(=O)N[C@H](C(=O)N[C@@H](CCC(=O)OCc1ccccc1)C(=O)OCc1ccccc1)C(C)C (some centres undefined) | 65
CCc1nc2c(N)nc3cc(OCCCc4cccnc4)ccc3c2s1 | 172 to 173
CCCCCCOCC1CN(c2cc3c(cc2F)c(=O)c(C(=O)O)cn3CC)CCN1 (centres undefined) | 121 to 124
CC(C)[C@H](NC(=O)N(C)Cc1ccccn1)C(=O)N[C@@H](Cc1ccccc1)C[C@H](OC(=O)CN(C)C)[C@H](Cc1ccccc1)NC(=O)[C@@H](NC(=O)N(C)Cc1ccccn1)C(C)C | 109 to 111
CC(C)(C)OC(=O)N(CNCCNC(=O)CCOCC(COCCC(=O)NCCNCN(C(=O)OC(C)(C)C)C(=O)OC(C)(C)C)(COCCC(=O)NCCNCN(C(=O)OC(C)(C)C)C(=O)OC(C)(C)C)NC(=O)OCc1ccccc1)C(=O)OC(C)(C)C | 86 to 88
CCC1(CC)c2cc(-c3nc4ccccc4s3)ccc2-c2ccc(N(Cc3ccccc3)c3ccc4c(c3)C(CC)(CC)c3cc(-c5nc6ccccc6s5)ccc3-4)cc21 | 174 to 176
COC(=O)C(CC(C)C)NC(=O)C(Cc1ccccc1)NC(=O)C(Cc1ccc(O)cc1)NC(=O)C(CO)NC(=O)C(Cc1c[nH]c2ccccc12)NC(=O)OCc1ccccc1 (centres undefined) (Cbz-WSYFL-OMe; configuration not given here) | 221 to 223
COC(=O)[C@H](CC(C)C)NC(=O)CNC(=O)[C@H](Cc1ccc(O)cc1)NC(=O)[C@H](CO)NC(=O)[C@H](Cc1c[nH]c2ccccc12)NC(=O)[C@H](Cc1c[nH]cn1)NC(=O)[C@@H]1CCC(=O)N1 | 213 to 215
CCCCCCCCCCCCCCCCCCN(CCCCCCCCCCCCCCCCCC)C(=O)c1cc(NS(=O)(=O)c2ccc(Cl)nc2)c2ccccc2c1O | 80 to 83
CCOC(=O)c1cc2cc(OC)cc(NS(=O)(=O)c3cccs3)c2[nH]1 | 158 to 159
O=S1(=O)c2ccccc2N(c2ccccc2)c2ccc(C=Cc3ccc(-c4ccc(C=Cc5ccc6c(c5)S(=O)(=O)c5ccccc5N6c5ccccc5)cc4)cc3)cc21 | 392
FC(F)(F)C(F)(F)C(F)(F)C(F)(F)C(F)(F)C(F)(F)C(F)(F)C(F)(F)C(F)(F)C(F)(F)CC[Si](Br)(CCC(F)(F)C(F)(F)C(F)(F)C(F)(F)C(F)(F)C(F)(F)C(F)(F)C(F)(F)C(F)(F)C(F)(F)F)CCC(F)(F)C(F)(F)C(F)(F)C(F)(F)C(F)(F)C(F)(F)C(F)(F)C(F)(F)C(F)(F)C(F)(F)F | 80 to 81
O=S(=O)(C(/C=C/c1c(F)c(F)c(F)c(F)c1F)c1c(F)c(F)c(F)c(F)c1F)C(/C=C/c1c(F)c(F)c(F)c(F)c1F)c1c(F)c(F)c(F)c(F)c1F (centres undefined) | 137 to 139

Results, then the molecule that gave them:

melting point [°C] | Structure (SMILES)
108 to 110 | CC(=O)OCC1OC(n2cc(C3=C(c4cn(S(=O)(=O)c5ccccc5)c5ncccc45)C(=O)N(COCc4ccccc4)C3=O)c3cccnc32)C(OC(C)=O)C(OC(C)=O)C1OC(C)=O (centres undefined)
206 to 208 | C=Cc1cccc2c(=O)c(C(=O)CCC)c[nH]c12
191 to 193 | CS(=O)(=O)c1ccc(-c2cc3c(cc2C(=O)c2cc4c(cc2-c2ccc(S(C)(=O)=O)cc2)OC(c2cc(F)cc(F)c2)CO4)OCC(c2cc(F)cc(F)c2)O3)cc1 (centres undefined)
77 to 78 | CCCCCCCCCCCCCCCC(=O)OCC1OC(n2cc(F)c(=O)n(C(=O)c3cccc(OC)c3OC)c2=O)CC1OC(=O)CCCCCCCCCCCCCCC (centres undefined)
189 to 194 | CCCCN(c1nc(N(CCCC)C2CC(C)(C)N(OC3CCCCC3)C(C)(C)C2)nc(N(CCCC)C2CC(C)(C)N(OC3CCCCC3)C(C)(C)C2)n1)C1CC(C)(C)N(OC2CCCCC2)C(C)(C)C1
112 to 114 | COc1ccc(C2Sc3ccccc3N(CCN(C)C)C(=O)C2OC(=O)C=CC(=O)OC2C(=O)N(CCN(C)C)c3ccccc3SC2c2ccc(OC)cc2)cc1 (centres undefined)
189 to 194 | CS(=O)(=O)c1ccc(-c2nc(C(F)(F)F)nc(N3CCN(C(=O)c4cccs4)CC3)c2-c2ccccc2)cc1
177 to 178 | COc1ccc2c(c1)c(CC(=O)NCC(C)(C)SN=O)c(C)n2C(=O)c1ccc(Cl)cc1
204 to 205 | O=C(O)c1ccccc1Oc1ccc(C(F)(F)F)cc1N(S(=O)(=O)c1cc(C(F)(F)F)cc(C(F)(F)F)c1)S(=O)(=O)c1cc(C(F)(F)F)cc(C(F)(F)F)c1
130 to 134 | CC(=O)OCC(CNC(=O)c1c(I)c(C(=O)NCC(COC(C)=O)OC(C)=O)c(I)c(N2CCCCC2=O)c1I)OC(C)=O (centres undefined)
118 to 121 | COc1cc(OC)c(/C=C/C(c2ccc(OC)c(NC(=O)CC(=O)O)c2)S(=O)(=O)C(/C=C/c2c(OC)cc(OC)cc2OC)c2ccc(OC)c(NC(=O)CC(=O)O)c2)c(OC)c1 (centres undefined)
239 to 242 | CC(C)CC(NC(=O)OC(C)(C)C)C(=O)NCC(=O)NCC(=O)NC(C)C(=O)NCC(=O)NC(CSC(c1ccccc1)(c1ccccc1)c1ccccc1)C(=O)NC(CCCCNC(=O)OC(C)(C)C)C(=O)NC(CC(N)=O)C(=O)NC(Cc1ccccc1)C(=O)NC(Cc1ccccc1)C(=O)NN (centres undefined) (Boc-LGGAGC(Trt)K(Boc)NFF-NHNH2; configuration not given here)
186 to 187 | CCCCN(CCCC)c1ccc(C=Cc2ccc(C=CC3=C(C#N)C(=C(C#N)C#N)OC3(C)C(F)(F)F)s2)c(O[Si](c2ccccc2)(c2ccccc2)C(C)(C)C)c1 (centres undefined)
72 to 74 | CCCCCCCCCCCCCCCC(=O)C(O)[C@](O)(C(=O)CCCCCCCCCCCCCCC)[C@@H](O)[C@H](O)[C@@](O)(C(=O)CCCCCCCCCCCCCCC)C(O)C(=O)CCCCCCCCCCCCCCC (some centres undefined)
181 to 183 | COC(=O)C(C)NC(=O)C(Cc1ccc(OCc2ccccc2)cc1)NC(=O)C(COCc1ccccc1)NC(=O)C(Cc1c[nH]c2ccccc12)NC(=O)C1CCCCC1 (centres undefined) (Cyclohexanecarbonyl-WS(Bn)Y(Bn)A-OMe; configuration not given here)
273 to 277 | CC(c1cc(C(C)(C)C)cc(C(C)(C)C)c1O)c1cc(C(C)(C)C)cc(C(C)(C)C)c1Op1oc2c(C(C)(C)C)cc(C(C)(C)C)cc2c2cc(C(C)(C)C)cc(C(C)(C)C)c2o1 (centres undefined)
160 to 165 | C=CC1=C(C)c2cc3[nH]c(cc4nc(cc5[nH]c(cc1n2)c(C)c5CCC(=O)OCCCCCCN(C)C)C(CCC(=O)OCCCCCCN(C)C)=C4C)c(C)c3C=C
217 to 222 | CC1CC2C3CCC4=CC(=O)C=CC4(C)C3(Cl)C(O)CC2(C)C1(O)C(=O)CO (centres undefined)
77 to 79 | CC(C)(C1CCC(OCC(CN2C(C)(C)CC3(CC2(C)C)OCCO3)OC(=O)c2ccccc2)CC1)C1CCC(OCC(CN2C(C)(C)CC3(CC2(C)C)OCCO3)OC(=O)c2ccccc2)CC1 (centres undefined)
74 to 76 | C=CCOc1ccc(C[C@H](NC(=O)OC(C)(C)C)C(=O)N[C@H](C(=O)OC)C(C)C)cc1
43.5 to 44 | CC(C)C(OC(C(I)=C(I)I)C(C)C)C(I)=C(I)I (centres undefined)
-5 | CC(C)=CCC/C(C)=C/CC/C(C)=C/CC/C=C(\C)CC/C=C(\C)CCC=C(C)C
320 to 325 | Brc1c(Br)c(Br)c(Oc2nc(Oc3c(Br)c(Br)c(Br)c(Br)c3Br)nc(Oc3c(Br)c(Br)c(Br)c(Br)c3Br)n2)c(Br)c1Br
92 to 96 | C=C1C(n2ccc(NC(=O)CCCCCCCCCCCCCCCCC)nc2=O)OC(COC(=O)CCCCCCCCCCCCCCCCC)C1(O)C(=O)CCCCCCCCCCCCCCCCC (centres undefined)
116 to 118 | Cc1ccccc1CNC(=O)[C@H]1N(C(=O)[C@@H](O)[C@H](Cc2ccccc2)NC(=O)C(C)C(C)C(=O)OC[C@H]2O[C@@H](n3cc(C)c(=O)[nH]c3=O)CC2N=[N+]=[N-])CSC1(C)C (some centres undefined)
148 to 153 | CC(C)(C)c1cc(SC(CCCC(Sc2cc(C(C)(C)C)c(O)c(C(C)(C)C)c2)Sc2cc(C(C)(C)C)c(O)c(C(C)(C)C)c2)Sc2cc(C(C)(C)C)c(O)c(C(C)(C)C)c2)cc(C(C)(C)C)c1O
146 | CC(C)[Si](OC(=O)Cc1cc(I)c(Oc2cc(I)c(O)c(I)c2)c(I)c1)(C(C)C)C(C)C
108 to 109 | CCC1(CC)c2cc(-c3nc4ccccc4s3)ccc2-c2ccc(C(CCCCCN)c3ccc4c(c3)C(CC)(CC)c3cc(-c5nc6ccccc6s5)ccc3-4)cc21
91 to 94 | O=P(O)(C(F)(F)C(F)(F)C(F)(F)C(F)(F)C(F)(C(F)(F)F)C(F)(F)F)C(F)(F)C(F)(F)C(F)(F)C(F)(F)C(F)(C(F)(F)F)C(F)(F)F
